Source: ChEMBL document CHEMBL2429805, “Studies toward the development of new silicon-containing building blocks for the direct (18)F-labeling of peptides” (J Med Chem, 2013)

Key:
Mus musculus [1] = assay: Biodistribution in tumor of NMRI nude mouse xenografted with human PC3 cells at 4.8 to 10.5 MBq after 60 to 105 mins by PET imaging analysis in presence of bombesin; format: ADME, organism-based, Neoplasm, PC-3; details: in vivo
Lung [2] = assay: Biodistribution in lung of NMRI nude mouse xenografted with human PC3 cells at 8.3 to 15.3 MBq after 117 mins by gamma-counting analysis; format: ADME, organism-based, PC-3; details: in vivo, 1.95 h
[3] = Ratio of biodistribution in tumor to blood of NMRI nude mouse xenografted with human PC3 cells at 8.3 to 15.3 MBq after 117 mins by gamma-counting analysis; format: ADME, organism-based, PC-3; details: tumour, 1.95 h
Mus musculus [4] = assay: Biodistribution in tumor of NMRI nude mouse xenografted with human PC3 cells at 4.8 to 10.5 MBq after 117 mins by gamma-counting analysis in presence of bombesin; format: ADME, organism-based, Neoplasm, PC-3; details: in vivo, 1.95 h
Kidney [5] = assay: Biodistribution in kidney of NMRI nude mouse xenografted with human PC3 cells at 8.3 to 15.3 MBq after 117 mins by gamma-counting analysis; format: ADME, organism-based, PC-3; details: in vivo, 1.95 h
Mus musculus [6] = assay: Biodistribution in tumor of NMRI nude mouse xenografted with human PC3 cells at 8.3 to 15.3 MBq after 60 to 105 mins by PET imaging analysis; format: ADME, organism-based, Neoplasm, PC-3; details: in vivo
Mus musculus [7] = assay: Biodistribution in abdominal region of NMRI nude mouse xenografted with human PC3 cells at 8.3 to 15.3 MBq after 60 to 105 mins by PET imaging analysis; format: ADME, organism-based, Abdomen, PC-3; details: in vivo
Mus musculus [8] = assay: Biodistribution in urinary bladder of NMRI nude mouse xenografted with human PC3 cells at 8.3 to 15.3 MBq after 60 to 105 mins by PET imaging analysis; format: ADME, organism-based, PC-3; details: in vivo
Mus musculus [9] = assay: Biodistribution in prostate of NMRI nude mouse xenografted with human PC3 cells at 4.8 to 10.5 MBq after 117 mins by gamma-counting analysis in presence of bombesin; format: ADME, organism-based, Prostate gland, PC-3; details: in vivo, 1.95 h
Mus musculus [10] = assay: Biodistribution in tumor of NMRI nude mouse xenografted with human PC3 cells at 8.3 to 15.3 MBq after 117 mins by gamma-counting analysis; format: ADME, organism-based, Neoplasm, PC-3; details: in vivo, 1.95 h
Pancreas [11] = assay: Biodistribution in pancreas of NMRI nude mouse xenografted with human PC3 cells at 8.3 to 15.3 MBq after 117 mins by gamma-counting analysis; format: ADME, organism-based, PC-3; details: in vivo, 1.95 h
[12] = Ratio of biodistribution in tumor to blood of NMRI nude mouse xenografted with human PC3 cells at 4.8 to 10.5 MBq after 117 mins by gamma-counting analysis in presence of bombesin; format: ADME, organism-based, PC-3; details: tumour, 1.95 h
[13] = Lipophilicity, log D of the compound in 1-octanol/PBS buffer at pH 7.4 after 15 mins by shake flask method; format: physicochemical
Blood [14] = assay: Biodistribution in blood of NMRI nude mouse xenografted with human PC3 cells at 8.3 to 15.3 MBq after 117 mins by gamma-counting analysis; format: ADME, organism-based, PC-3; details: in vivo, 1.95 h
Liver [15] = assay: Biodistribution in liver of NMRI nude mouse xenografted with human PC3 cells at 8.3 to 15.3 MBq after 117 mins by gamma-counting analysis; format: ADME, organism-based, PC-3; details: in vivo, 1.95 h
Mus musculus [16] = assay: Biodistribution in prostate of NMRI nude mouse xenografted with human PC3 cells at 8.3 to 15.3 MBq after 117 mins by gamma-counting analysis; format: ADME, organism-based, Prostate gland, PC-3; details: in vivo, 1.95 h
Intestine [17] = assay: Biodistribution in intestine of NMRI nude mouse xenografted with human PC3 cells at 4.8 to 10.5 MBq after 117 mins by gamma-counting analysis in presence of bombesin; format: ADME, organism-based, PC-3; details: in vivo, 1.95 h
[18] = Stability of the compound in PBS buffer up to 2 hrs; format: physicochemical
Bone = assay: Biodistribution in bone of NMRI nude mouse xenografted with human PC3 cells at 8.3 to 15.3 MBq after 60 to 105 mins by PET imaging analysis; format: ADME, organism-based, Bone element, PC-3; details: in vivo
Lung [19] = assay: Biodistribution in lung of NMRI nude mouse xenografted with human PC3 cells at 4.8 to 10.5 MBq after 117 mins by gamma-counting analysis in presence of bombesin; format: ADME, organism-based, PC-3; details: in vivo, 1.95 h
Spleen [20] = assay: Biodistribution in spleen of NMRI nude mouse xenografted with human PC3 cells at 4.8 to 10.5 MBq after 117 mins by gamma-counting analysis in presence of bombesin; format: ADME, organism-based, PC-3; details: in vivo, 1.95 h
Mus musculus [21] = assay: Biodistribution in gallbladder of NMRI nude mouse xenografted with human PC3 cells at 4.8 to 10.5 MBq after 117 mins by gamma-counting analysis in presence of bombesin; format: ADME, organism-based, Gall bladder, PC-3; details: in vivo, 1.95 h
Spleen [22] = assay: Biodistribution in spleen of NMRI nude mouse xenografted with human PC3 cells at 8.3 to 15.3 MBq after 117 mins by gamma-counting analysis; format: ADME, organism-based, PC-3; details: in vivo, 1.95 h
Liver [23] = assay: Biodistribution in liver of NMRI nude mouse xenografted with human PC3 cells at 4.8 to 10.5 MBq after 117 mins by gamma-counting analysis in presence of bombesin; format: ADME, organism-based, PC-3; details: in vivo, 1.95 h
Blood [24] = assay: Biodistribution in blood of NMRI nude mouse xenografted with human PC3 cells at 4.8 to 10.5 MBq after 117 mins by gamma-counting analysis in presence of bombesin; format: ADME, organism-based, PC-3; details: in vivo, 1.95 h
Pancreas [25] = assay: Biodistribution in pancreas of NMRI nude mouse xenografted with human PC3 cells at 4.8 to 10.5 MBq after 117 mins by gamma-counting analysis in presence of bombesin; format: ADME, organism-based, PC-3; details: in vivo, 1.95 h
Intestine [26] = assay: Biodistribution in intestine of NMRI nude mouse xenografted with human PC3 cells at 8.3 to 15.3 MBq after 117 mins by gamma-counting analysis; format: ADME, organism-based, PC-3; details: in vivo, 1.95 h
Mus musculus [27] = assay: Biodistribution in gallbladder of NMRI nude mouse xenografted with human PC3 cells at 8.3 to 15.3 MBq after 117 mins by gamma-counting analysis; format: ADME, organism-based, Gall bladder, PC-3; details: in vivo, 1.95 h
Kidney [28] = assay: Biodistribution in kidney of NMRI nude mouse xenografted with human PC3 cells at 4.8 to 10.5 MBq after 117 mins by gamma-counting analysis in presence of bombesin; format: ADME, organism-based, PC-3; details: in vivo, 1.95 h

- Drug uptake (Mus musculus [1]): Active
- Drug uptake (Lung [2]): 0.65 % ID/g
- Ratio [3]: 2
- Drug uptake (Mus musculus [4]): 1.24 % ID/g
- Drug uptake (Kidney [5]): 1.7 % ID/g
- Drug uptake (Mus musculus [6]): Active
- Drug uptake (Mus musculus [7]): Active
- Drug uptake (Mus musculus [8]): Active
- Drug uptake (Mus musculus [9]): 0.7 % ID/g
- Drug uptake (Mus musculus [10]): 1.8 % ID/g
- Drug uptake (Pancreas [11]): 10 % ID/g
- Ratio [12]: 1.1
- logD at 0.25 h [13]: 0.3
- Drug uptake (Blood [14]): 0.91 % ID/g
- Drug uptake (Liver [15]): 4.4 % ID/g
- Drug uptake (Mus musculus [16]): 0.37 % ID/g
- Drug uptake (Intestine [17]): 16 % ID/g
- Stability [18]: Stable
- Drug uptake (Bone): Not Active
- Drug uptake (Lung [19]): 1.4 % ID/g
- Drug uptake (Spleen [20]): 0.57 % ID/g
- Drug uptake (Mus musculus [21]): 236 % ID/g
- Drug uptake (Spleen [22]): 0.57 % ID/g
- Drug uptake (Liver [23]): 5.6 % ID/g
- Drug uptake (Blood [24]): 1.17 % ID/g
- Drug uptake (Pancreas [25]): 3.4 % ID/g
- Drug uptake (Intestine [26]): 21 % ID/g
- Drug uptake (Mus musculus [27]): 194 % ID/g
- Drug uptake (Kidney [28]): 2.1 % ID/g
SMILES: CC(C)C[C@H](NC(=O)C[C@H](O)[C@H](CC(C)C)NC(=O)[C@H](Cc1cnc[nH]1)NC(=O)CN(C)C(=O)[C@@H](NC(=O)[C@H](C)NC(=O)[C@H](Cc1c[nH]c2ccccc12)NC(=O)[C@H](CCC(N)=O)NC(=O)CCCCNC(=O)[C@H](CS(=O)(=O)O)NC(=O)[C@H](CS(=O)(=O)O)NC(=O)Cc1ccc([Si]([18F])(C(C)(C)C)C(C)(C)C)cc1)C(C)C)C(N)=O
